Experimental data published in patent publication US20070134670A1, “Methods for prediction and prognosis of cancer, and monitoring cancer therapy” (BAYER PHARMACEUTICALS CORPORATION, priority 2003, published 2007).

Test system: stanniocalcin expression in HMVEC cells
Assay: In vitro endothelial cell gene expression profiling (Affymetrix / TaqMan), HMVEC
Format: cell-based, human
Conditions: HMVECs; VEGF 10 ng/ml with heparin, 2 hours (FIG. 2A)
Text: Pooled human microvascular endothelial cells (HMVECs) or human umbilical vein endothelial cells (HUVECs) were purchased as 2 T75 flasks (Clonetics, Cambrex Corporation, East Rutherford, N.J.). Cells were expanded in fill Clonetics growth media (EGF+5% FCS) on 2% gelatin coated flasks until sufficient numbers were obtained to perform the experiment (4 flasks each at less than 6 passages). Prior to the treatments, cells were washed 2× in PBS and starved overnight in basal media (EBM+0.2% endotoxin free BSA). The next day, media was removed and replaced with 25 ml of EBM+BSA. VEGFR2 inhibitor (drug) stock was made in DMSO and added to a final concentration of 100 nm in 0.1% DMSO. Heparin was used at 1.5 U/ml final concentration. VEGF final concentration was 10 ng/ml. Drug/DMSO was added for 30 minutes prior to adding VEGF/Heparin for 2 hours. […] RNA was subsequently isolated via Qiagen midi spin kits and quantitated by OD260/280 and gel visualization and/or Agilent bioanalyzer.
Samples were organically extracted and ethanol precipitated. […] The resulting cRNA was put through RNeasy clean-up protocol, and then quantified using UV spectrophotometry. […]
A master mix of the primers at 50 μM each was prepared. The samples were analyzed by standard PCR conditions on an ABI PRISM 7700 Sequence Detector using SYBR green probes. β-actin was used as controls for loading normalization.

With VEGF the “human stanniocalcin-1 expression induced after treatment with VEGF” value was about 20 fold.
